{"source": "patent EP4624457A1", "about": "“I[…] DERIVATIVES, I[…] NEURODEGENERATIVE DISEASES” (Centre National de la Recherche Scientifique, priority 2024, dated 2025)", "target": "muscle (α1)2βγδ nAChR subtype (Torpedo marmorata, UniProt P02711+Q6S3H8+Q6S3H9)", "sequence (P02711 25-461)": "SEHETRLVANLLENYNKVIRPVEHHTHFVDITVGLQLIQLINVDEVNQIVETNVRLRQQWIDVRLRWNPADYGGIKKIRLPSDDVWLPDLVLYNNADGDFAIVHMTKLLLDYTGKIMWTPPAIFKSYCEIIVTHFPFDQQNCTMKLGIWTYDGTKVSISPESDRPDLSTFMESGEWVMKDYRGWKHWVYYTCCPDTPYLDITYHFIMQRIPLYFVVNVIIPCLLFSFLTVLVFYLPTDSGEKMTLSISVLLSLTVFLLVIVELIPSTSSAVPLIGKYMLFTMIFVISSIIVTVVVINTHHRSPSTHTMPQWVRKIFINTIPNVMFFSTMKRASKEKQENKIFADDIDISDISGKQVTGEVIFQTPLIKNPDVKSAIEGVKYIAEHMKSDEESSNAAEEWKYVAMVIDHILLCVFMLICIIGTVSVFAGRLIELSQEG", "sequence (Q6S3H9 entry or part of it)": "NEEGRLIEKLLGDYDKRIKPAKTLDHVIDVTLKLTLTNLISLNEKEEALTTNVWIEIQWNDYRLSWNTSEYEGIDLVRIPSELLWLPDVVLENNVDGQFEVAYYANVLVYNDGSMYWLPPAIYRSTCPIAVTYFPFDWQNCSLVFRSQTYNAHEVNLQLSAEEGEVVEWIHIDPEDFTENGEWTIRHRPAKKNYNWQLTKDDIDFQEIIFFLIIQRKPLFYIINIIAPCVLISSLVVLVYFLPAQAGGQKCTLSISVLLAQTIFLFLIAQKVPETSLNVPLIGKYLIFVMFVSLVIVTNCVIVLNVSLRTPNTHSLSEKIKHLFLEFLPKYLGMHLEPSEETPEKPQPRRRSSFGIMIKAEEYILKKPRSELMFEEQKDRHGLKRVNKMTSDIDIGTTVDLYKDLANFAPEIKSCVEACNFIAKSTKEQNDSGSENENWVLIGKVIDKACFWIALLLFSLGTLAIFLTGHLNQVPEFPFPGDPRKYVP", "sequence (Q6S3H8 entry or part of it)": "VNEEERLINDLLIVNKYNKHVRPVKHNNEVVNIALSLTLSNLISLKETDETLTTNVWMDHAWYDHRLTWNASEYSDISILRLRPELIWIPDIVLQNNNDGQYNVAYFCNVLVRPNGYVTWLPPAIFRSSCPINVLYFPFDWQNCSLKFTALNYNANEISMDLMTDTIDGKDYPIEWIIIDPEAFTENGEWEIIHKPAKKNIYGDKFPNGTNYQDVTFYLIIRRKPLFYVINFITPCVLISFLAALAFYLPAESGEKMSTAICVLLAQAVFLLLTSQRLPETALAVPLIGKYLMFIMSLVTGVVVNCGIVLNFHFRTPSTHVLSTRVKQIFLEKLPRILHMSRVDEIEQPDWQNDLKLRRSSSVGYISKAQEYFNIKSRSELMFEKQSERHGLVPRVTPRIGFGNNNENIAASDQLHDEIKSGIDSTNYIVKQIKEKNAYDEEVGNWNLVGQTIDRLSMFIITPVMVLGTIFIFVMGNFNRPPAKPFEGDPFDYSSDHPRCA", "sequence (Q6S3I0 entry or part of it, further chain)": "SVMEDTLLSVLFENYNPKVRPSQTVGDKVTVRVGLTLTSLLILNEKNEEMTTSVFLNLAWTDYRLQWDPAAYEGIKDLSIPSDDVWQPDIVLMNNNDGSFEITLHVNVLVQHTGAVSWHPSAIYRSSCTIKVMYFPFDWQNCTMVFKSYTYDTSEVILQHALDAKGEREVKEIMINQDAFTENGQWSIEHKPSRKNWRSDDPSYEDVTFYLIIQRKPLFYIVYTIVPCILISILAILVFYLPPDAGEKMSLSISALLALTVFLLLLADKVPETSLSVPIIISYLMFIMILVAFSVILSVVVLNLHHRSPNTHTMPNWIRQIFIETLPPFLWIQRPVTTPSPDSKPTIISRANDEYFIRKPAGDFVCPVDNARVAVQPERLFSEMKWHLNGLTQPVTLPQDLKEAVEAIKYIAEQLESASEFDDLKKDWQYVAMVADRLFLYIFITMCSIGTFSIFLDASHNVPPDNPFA", "assay": "Two-electrode voltage clamp electrophysiology, antagonistic activity on Xenopus laevis oocytes having incorporated Torpedo muscle-type nAChR", "type": "cell-based", "conditions": "TEVC, value (95% CI), toxin purified by the applicant, Figure 5, read-out: nAChR subtype (nM; 95% CI) α12β1γδ (Torpedo)", "from_the_text": "The emerging cyclic imines toxins (CiTXs) of global distribution across coastal environments that are produced by dinoflagellates move fast up the human food chain through shellfish. The CiTX family includes 44 compounds: 7 gymnodimines (A-E, 12-methylgymnodimine and 16-desmethyl gymnodimine D), 16 spirolides (A-D, G-I, 13-desmethyl spirolide-C, 27-Hydroxy-13-desmethyl spirolide-C, 13,19-didesmethyl spirolide-C, 20-hydroxy-13,19-didesmethyl spirolide- C, 27-hydroxy-13,19-spirolide-C, 27-Oxo-13,19-didesmethyl spirolide-C, 13-desmethyl spirolide-D, 20-hydroxy-13,19-didesmethyl spirolide-D and 20-methyl spirolide-G), 8 pinnatoxins (A-H), 3 pteriatoxins (A-C), 6 prorocentrolides (A-B, 4- hydroxyprorocentrolide, 9,51-dihydro prorocentrolide, 30-sulfate prorocentrolide and 14-O-acetyl-4-hydroxyprorocentrolide), 1 spiroprorocentrimine, 2 portimines (A and B), and 1 kabirimine, (Aráoz et al. (2020) Cyclic imine toxins survey in coastal european shellfish samples: Bioaccumulation and mode of action of 28-O-palmitoyl ester of pinnatoxin-G. First report of portimine-A bioaccumulation. Harmful Algae, 98 [1]). The spiroimine moiety is the major feature characterizing cyclic imine toxins. […]"}
{"smiles": "C=CC1=C[C@@H]2[C@@H]3O[C@]4(CC[C@H](O4)[C@@H](C)C[C@@H](O)C3=O)C[C@H](O)C3=NCC[C@@]32CC1", "note": "[Portimine-A]", "values": [{"measurement": "IC50", "value": 11900, "unit": "nM"}]}
